Earlier results as cited in patent publication US20100112102A1, “THERAPEUTIC COMPOSITIONS FOR THE TREATMENT OF BENIGH PROSTATE HYPERPLASIA, PROSTATITIS, IMPOTENCE, INFERTILITY AND PROSTATE CANCER AND A METHOD FOR THE USE THEREOF” (priority 2007, published 2010).

Tested on: 5α-reductase
Conditions: one group of patients

Which “J-PSS parameters, decrease on average” value does the source give for CC(C)(C)NC(=O)[C@H]1CC[C@H]2[C@@H]3CC[C@H]4NC(=O)C=C[C@]4(C)[C@H]3CC[C@]12C [Finasteride] here?
Its value is 20%.

And the “maximal rate of urination, increase” value?
The value was 32.5%.

What about the “prostate size, decrease on average” value of the same compound?
Its value is 32%.
